This note sets out measurements from the supplement of paper PMC12463676, “Small-molecule dissolution of stress granules by redox modulation benefits ALS models” (Nature Chemical Biology, 2025).

Compound in assay [1]: NC(=O)CCCCC1CCSS1 [lipoamide]
The assay can be described thus: thermal stability z-score vs DMSO; higher = more thermally stabilized by treatment. Conditions: HeLa, lipoamide concentration 100 µM. How it is done:
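Cellular thermal proteome profiling in HeLa cells. Cells were treated with 100 µM lipoamide for 1 h, with or without 1 mM arsenate for a further 1 h, then heated to ten temperatures (37-66.3 °C), and soluble protein was quantified by TMT mass spectrometry relative to 0.1% DMSO controls. The thermal stability score (sum of log2 fold changes minus the abundance score) was transformed to a z-score; mean of n = 3 experiments.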

Compound in assay [2]: O=[As]([O-])(O)O.[K+] [potassium arsenate]
The description is as above. Conditions: HeLa; arsenate concentration 1 mM. How it is done:
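Cellular thermal proteome profiling in HeLa cells treated with 1 mM arsenate for 1 h (DMSO pretreatment), heated to ten temperatures (37-66.3 °C). Soluble protein was quantified by TMT mass spectrometry relative to DMSO controls; the thermal stability score was transformed to a z-score; mean of n = 3 experiments.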

Setting [3] is: arsenate co-treatment: 1 mM arsenate 1 h.
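Note: each temperature applied for 3 min, abundance score taken as mean log2 fold change at the two lowest temperatures, z-score obtained by mean subtraction and division by SD.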

Chain of UniProt Q96CS7 (Q96CS7 whole entry): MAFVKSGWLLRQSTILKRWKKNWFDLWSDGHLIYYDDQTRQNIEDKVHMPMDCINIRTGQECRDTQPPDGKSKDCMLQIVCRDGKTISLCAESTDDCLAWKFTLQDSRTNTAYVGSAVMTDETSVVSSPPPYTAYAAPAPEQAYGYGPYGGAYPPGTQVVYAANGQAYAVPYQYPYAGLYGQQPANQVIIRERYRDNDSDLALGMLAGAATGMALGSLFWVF
Chain of UniProt P49736 (P49736 whole entry): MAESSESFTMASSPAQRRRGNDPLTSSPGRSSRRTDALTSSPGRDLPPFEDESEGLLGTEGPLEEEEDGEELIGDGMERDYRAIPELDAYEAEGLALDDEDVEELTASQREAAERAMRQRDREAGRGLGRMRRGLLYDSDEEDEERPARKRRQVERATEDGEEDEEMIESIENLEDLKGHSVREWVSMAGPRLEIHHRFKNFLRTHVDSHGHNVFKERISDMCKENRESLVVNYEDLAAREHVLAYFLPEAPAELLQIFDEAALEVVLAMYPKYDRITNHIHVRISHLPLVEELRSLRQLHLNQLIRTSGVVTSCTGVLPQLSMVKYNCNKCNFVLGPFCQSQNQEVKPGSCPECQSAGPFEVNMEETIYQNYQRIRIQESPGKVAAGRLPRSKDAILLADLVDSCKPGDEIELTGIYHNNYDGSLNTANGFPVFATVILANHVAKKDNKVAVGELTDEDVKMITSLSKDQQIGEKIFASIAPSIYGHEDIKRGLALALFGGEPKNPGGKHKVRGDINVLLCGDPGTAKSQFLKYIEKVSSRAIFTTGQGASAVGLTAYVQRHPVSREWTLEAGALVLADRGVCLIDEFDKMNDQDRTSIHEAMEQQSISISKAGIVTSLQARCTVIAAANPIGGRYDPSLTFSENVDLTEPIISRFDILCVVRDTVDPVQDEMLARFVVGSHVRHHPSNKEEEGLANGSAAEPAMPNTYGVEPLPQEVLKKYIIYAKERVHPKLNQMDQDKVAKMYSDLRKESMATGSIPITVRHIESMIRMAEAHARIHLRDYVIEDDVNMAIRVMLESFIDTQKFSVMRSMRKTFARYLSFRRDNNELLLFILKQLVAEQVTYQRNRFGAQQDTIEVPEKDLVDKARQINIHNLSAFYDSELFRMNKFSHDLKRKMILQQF
Chain of UniProt Q8TCJ2 (Q8TCJ2 whole entry): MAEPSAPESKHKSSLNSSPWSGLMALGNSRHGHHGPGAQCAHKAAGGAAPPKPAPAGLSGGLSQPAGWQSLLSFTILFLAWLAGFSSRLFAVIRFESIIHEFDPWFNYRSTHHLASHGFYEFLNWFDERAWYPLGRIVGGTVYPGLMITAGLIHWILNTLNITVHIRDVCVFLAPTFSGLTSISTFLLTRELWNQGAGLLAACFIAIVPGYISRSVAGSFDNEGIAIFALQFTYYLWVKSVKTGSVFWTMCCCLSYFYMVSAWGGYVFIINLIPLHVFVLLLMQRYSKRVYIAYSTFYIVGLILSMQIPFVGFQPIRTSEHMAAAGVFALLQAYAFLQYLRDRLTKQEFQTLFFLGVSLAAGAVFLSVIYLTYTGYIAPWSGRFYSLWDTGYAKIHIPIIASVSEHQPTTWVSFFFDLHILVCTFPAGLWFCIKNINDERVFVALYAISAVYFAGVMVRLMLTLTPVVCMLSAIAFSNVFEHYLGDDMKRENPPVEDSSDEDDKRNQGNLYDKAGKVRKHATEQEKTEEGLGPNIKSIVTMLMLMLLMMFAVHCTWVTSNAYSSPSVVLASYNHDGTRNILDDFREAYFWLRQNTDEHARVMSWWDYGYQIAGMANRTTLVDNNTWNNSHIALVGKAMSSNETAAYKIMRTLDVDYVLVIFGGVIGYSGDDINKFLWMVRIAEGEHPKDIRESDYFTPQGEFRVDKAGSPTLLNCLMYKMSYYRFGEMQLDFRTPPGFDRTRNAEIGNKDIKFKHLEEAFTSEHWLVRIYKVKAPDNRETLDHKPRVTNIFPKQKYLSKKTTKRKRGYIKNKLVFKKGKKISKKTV
Chain of UniProt Q9NRZ9 (Q9NRZ9 whole entry): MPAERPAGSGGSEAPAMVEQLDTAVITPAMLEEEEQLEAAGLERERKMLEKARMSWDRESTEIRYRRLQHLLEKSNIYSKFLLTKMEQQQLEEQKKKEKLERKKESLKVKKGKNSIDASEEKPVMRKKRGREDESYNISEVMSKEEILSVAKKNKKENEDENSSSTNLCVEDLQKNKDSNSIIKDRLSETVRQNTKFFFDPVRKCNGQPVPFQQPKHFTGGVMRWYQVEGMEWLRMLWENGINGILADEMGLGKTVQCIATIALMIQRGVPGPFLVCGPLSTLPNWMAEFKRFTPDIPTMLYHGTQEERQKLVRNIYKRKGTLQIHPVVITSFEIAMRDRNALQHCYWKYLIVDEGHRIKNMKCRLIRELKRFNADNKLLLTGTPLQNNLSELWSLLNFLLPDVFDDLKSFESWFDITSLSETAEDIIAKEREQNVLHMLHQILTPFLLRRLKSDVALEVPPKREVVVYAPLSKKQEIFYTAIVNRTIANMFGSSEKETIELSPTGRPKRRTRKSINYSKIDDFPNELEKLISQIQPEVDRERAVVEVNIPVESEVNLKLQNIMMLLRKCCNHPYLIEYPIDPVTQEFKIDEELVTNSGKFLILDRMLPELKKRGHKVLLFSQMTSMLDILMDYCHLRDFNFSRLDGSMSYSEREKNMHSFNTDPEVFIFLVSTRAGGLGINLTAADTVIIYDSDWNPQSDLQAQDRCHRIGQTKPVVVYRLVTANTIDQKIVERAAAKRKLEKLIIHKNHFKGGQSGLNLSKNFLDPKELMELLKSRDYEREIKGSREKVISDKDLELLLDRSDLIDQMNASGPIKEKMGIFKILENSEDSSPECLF
Chain of UniProt Q10570 (Q10570 whole entry): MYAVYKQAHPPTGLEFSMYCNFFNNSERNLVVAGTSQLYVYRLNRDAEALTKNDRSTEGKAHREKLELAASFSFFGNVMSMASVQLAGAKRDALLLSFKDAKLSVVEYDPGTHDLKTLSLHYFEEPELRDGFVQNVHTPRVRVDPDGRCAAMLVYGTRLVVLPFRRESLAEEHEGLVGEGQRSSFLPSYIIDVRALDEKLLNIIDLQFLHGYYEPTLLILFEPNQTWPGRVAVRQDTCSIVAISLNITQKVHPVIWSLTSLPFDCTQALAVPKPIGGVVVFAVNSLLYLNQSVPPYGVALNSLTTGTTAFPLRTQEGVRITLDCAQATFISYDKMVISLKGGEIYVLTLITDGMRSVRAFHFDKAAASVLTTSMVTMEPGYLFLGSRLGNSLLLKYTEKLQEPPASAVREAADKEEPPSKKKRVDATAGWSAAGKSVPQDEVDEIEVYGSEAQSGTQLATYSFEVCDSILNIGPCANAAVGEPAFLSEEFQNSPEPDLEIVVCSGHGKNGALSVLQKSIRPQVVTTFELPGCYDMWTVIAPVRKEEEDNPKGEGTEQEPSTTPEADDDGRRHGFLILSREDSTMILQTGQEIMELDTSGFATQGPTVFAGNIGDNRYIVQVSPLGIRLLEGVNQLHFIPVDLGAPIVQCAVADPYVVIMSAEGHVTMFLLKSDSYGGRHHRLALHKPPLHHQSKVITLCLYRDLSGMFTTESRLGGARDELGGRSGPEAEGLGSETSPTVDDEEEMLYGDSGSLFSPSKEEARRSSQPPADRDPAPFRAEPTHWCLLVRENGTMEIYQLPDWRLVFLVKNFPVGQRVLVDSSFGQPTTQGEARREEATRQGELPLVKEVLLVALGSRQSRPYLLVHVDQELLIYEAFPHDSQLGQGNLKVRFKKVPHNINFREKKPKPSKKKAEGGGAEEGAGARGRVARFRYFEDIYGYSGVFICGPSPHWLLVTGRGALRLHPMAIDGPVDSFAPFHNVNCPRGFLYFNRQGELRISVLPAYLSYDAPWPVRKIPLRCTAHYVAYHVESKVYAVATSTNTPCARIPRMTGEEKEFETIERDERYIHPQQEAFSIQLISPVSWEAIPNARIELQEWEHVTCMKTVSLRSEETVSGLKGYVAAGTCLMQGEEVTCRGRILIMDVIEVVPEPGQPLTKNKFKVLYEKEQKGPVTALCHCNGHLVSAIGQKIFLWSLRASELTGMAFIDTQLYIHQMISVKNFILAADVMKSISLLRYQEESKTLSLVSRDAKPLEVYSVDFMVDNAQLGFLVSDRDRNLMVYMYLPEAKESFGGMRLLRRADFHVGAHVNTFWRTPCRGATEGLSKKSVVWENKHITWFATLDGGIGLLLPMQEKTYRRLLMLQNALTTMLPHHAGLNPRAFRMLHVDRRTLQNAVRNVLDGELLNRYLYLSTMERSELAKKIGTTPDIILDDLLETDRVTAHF
Chain of UniProt O14757 (O14757 whole entry): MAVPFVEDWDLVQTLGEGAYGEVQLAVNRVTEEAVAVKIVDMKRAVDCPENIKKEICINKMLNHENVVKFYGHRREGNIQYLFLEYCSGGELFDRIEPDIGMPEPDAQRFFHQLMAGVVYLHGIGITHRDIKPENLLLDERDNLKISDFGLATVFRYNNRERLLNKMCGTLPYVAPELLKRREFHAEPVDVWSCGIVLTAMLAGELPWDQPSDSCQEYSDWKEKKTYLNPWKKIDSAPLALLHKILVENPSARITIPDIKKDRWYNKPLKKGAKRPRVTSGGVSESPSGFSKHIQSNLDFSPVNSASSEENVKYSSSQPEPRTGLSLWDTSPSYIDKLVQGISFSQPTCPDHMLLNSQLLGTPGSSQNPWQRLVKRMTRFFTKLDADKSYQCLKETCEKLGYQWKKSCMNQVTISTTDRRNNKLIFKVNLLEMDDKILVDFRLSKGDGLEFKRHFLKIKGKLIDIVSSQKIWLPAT
Chain of UniProt O75920 (O75920 whole entry): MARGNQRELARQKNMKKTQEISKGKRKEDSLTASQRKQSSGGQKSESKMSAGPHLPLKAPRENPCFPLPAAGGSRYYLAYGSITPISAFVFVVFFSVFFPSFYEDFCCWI

In the case of PEX19 (UniProt P40855), the thermal stability z-score in assay [1] (setting [3]) amounted to 1.96; in assay [1] (arsenate co-treatment: none) it was 1.51; in assay [2], 1.13.

Regarding PGAM1 (UniProt P18669), the results for the thermal stability z-score in assay [1] (setting [3]), in assay [1] (arsenate co-treatment: none) and in assay [2] were -0.0445, 0.244 and -0.0878, respectively.

CDC5L (UniProt Q99459): the thermal stability z-score was 0.945 in assay [1] (setting [3]), 0.573 in assay [1] (arsenate co-treatment: none) and -0.167 in assay [2].

In the case of HELLS (UniProt Q9NRZ9), the thermal stability z-score in assay [1] (setting [3]) is -0.0381; in assay [1] (arsenate co-treatment: none) it was -0.0408; in assay [2], -0.282.

Regarding CAPN1 (UniProt P07384), the thermal stability z-score in assay [1] (setting [3]) was -0.0396; in assay [1] (arsenate co-treatment: none), -0.213; in assay [2], -0.369.

As to FAH (UniProt P16930), the values for the thermal stability z-score in assay [1] (setting [3]), in assay [1] (arsenate co-treatment: none) and in assay [2] were 0.241, -0.125 and -0.623, respectively.

For PYGL (UniProt P06737), the thermal stability z-score is 0.968 in assay [1] (setting [3]), 0.345 in assay [1] (arsenate co-treatment: none) and -0.513 in assay [2].

Regarding STT3B (UniProt Q8TCJ2), the thermal stability z-score in assay [1] (setting [3]) was -3.41; in assay [1] (arsenate co-treatment: none) it was -2.66; in assay [2] it was 0.646.

For the target SERF1A (UniProt O75920), the thermal stability z-score in assay [1] (setting [3]) is -0.0837; in assay [1] (arsenate co-treatment: none) it was 0.743; in assay [2] it was -0.297.

For the target RPS28 (UniProt P62857), the thermal stability z-score was 0.574 in assay [1] (setting [3]), 0.243 in assay [1] (arsenate co-treatment: none) and -0.0195 in assay [2].

RPL37 (UniProt P61927): the thermal stability z-score in assay [1] (setting [3]) was 0.254; in assay [1] (arsenate co-treatment: none), 0.203; in assay [2], -0.915.

Consider CPSF1 (UniProt Q10570), for which the values for the thermal stability z-score in assay [1] (setting [3]), in assay [1] (arsenate co-treatment: none) and in assay [2] were 0.324, 0.168 and -0.123, respectively.

With FTSJ3 (UniProt Q8IY81), the thermal stability z-score in assay [1] (setting [3]) was -0.198; in assay [1] (arsenate co-treatment: none), 0.792; in assay [2], -0.519.

On to CHEK1 (UniProt O14757), for which the thermal stability z-score in assay [1] (setting [3]) is 0.0611; in assay [1] (arsenate co-treatment: none), -0.137; in assay [2], -0.526.

Consider BSG (UniProt P35613), for which the thermal stability z-score in assay [1] (setting [3]) was 0.714; in assay [1] (arsenate co-treatment: none), 0.573; in assay [2] it was 0.265.

With PRPF39 (UniProt Q86UA1), the values for the thermal stability z-score in assay [1] (setting [3]), in assay [1] (arsenate co-treatment: none) and in assay [2] were -0.0835, -0.137 and -0.0696, respectively.

For PLEKHB2 (UniProt Q96CS7), the figures for the thermal stability z-score in assay [1] (setting [3]), in assay [1] (arsenate co-treatment: none) and in assay [2] were -0.698, -0.101 and 0.675, respectively.

As for MCM2 (UniProt P49736), the thermal stability z-score was -0.75 in assay [1] (setting [3]), -0.391 in assay [1] (arsenate co-treatment: none) and -0.389 in assay [2].

Turning to MTIF2 (UniProt P46199), the thermal stability z-score in assay [1] (setting [3]) is -0.77; in assay [1] (arsenate co-treatment: none), -1.59; in assay [2], -0.789.

As for CARNMT1 (UniProt Q8N4J0), the thermal stability z-score in assay [1] (setting [3]) was -0.0735; in assay [1] (arsenate co-treatment: none), -0.179; in assay [2] it was 0.59.

For SMARCA5 (UniProt O60264), the thermal stability z-score is 0.76 in assay [1] (setting [3]), 1.44 in assay [1] (arsenate co-treatment: none) and -0.922 in assay [2].

For CBR1 (UniProt P16152), the thermal stability z-score in assay [1] (setting [3]) came to 0.136; in assay [1] (arsenate co-treatment: none), 0.208; in assay [2], 0.879.

For the target QSER1 (UniProt Q2KHR3), the thermal stability z-score in assay [1] (setting [3]) is -0.147; in assay [1] (arsenate co-treatment: none), -0.0194; in assay [2], 0.0737.
